One series has as its target tryptase (Homo sapiens, UniProt Q15661). The series is described as follows: Cleavage of peptides by purified tryptase, MALDI-TOF/TOF. The following applies: 25 nM protease, 10 µM peptide; for Incubation time at which the first cleavage or decrease of the full-length peptide was observed, tryptase: 37 °C, time points 2, 5, 10, 30 min; for TL disarming (D), Tryptase / TL unmasking (U), Tryptase: PAR-based peptides; for TL disarming (D), Tryptase / TL unmasking (U), Tryptase / Efficiency of the first cleavage in the peptide, Tryptase: 37 °C, 2, 5, 10 and 30 min; for Efficiency of the first cleavage in the peptide, Tryptase: stopped with 2% TFA. An excerpt:
Trypsin-like proteases included in the experiments are trypsin-1, -2 and -3, tryptase (Enzo LifeSciences), thrombin (Sigma-Aldrich) and cathepsin G (Sigma-Aldrich). Trypsin-1, -2 and -3 were produced as described by Koistinen et al. and Wu et al.. Two elastase-like enzymes, neutrophil elastase (Enzo LifeSciences, Farmingdale, NY, USA) and pancreatic elastase I (Sigma-Aldrich) were included as well. All enzymes were from human origin except for pancreatic elastase from porcine pancreas.
Reaction mixtures with purified enzymes were compiled in an identical way. Each mixture contained an equimolar concentration of protease (25 nM based on) and 10 µM peptide of interest and was incubated for 2, 5, 10 and 30 min at 37 °C. Substance P was added as the standard peptide except for the reaction mixtures with substance P or bradykinin as the peptide of interest, where angiotensin II (Bachem) was added.
(§1) The TFA mixtures were thawed on ice and desalted using C18 zip-tips (Merck Millipore®, Burlington, MA, USA) with a capacity of 5 µg protein. Retained peptide fragments were eluted directly on the MALDI target plate. Next, 0.5 µL of a 2.5 mg/mL α-cyano-4-hydroxycinnamic acid (Sigma-Aldrich) matrix solution (in 70% acetonitrile, 0.1% TFA) was spotted on top of the sample. A 6-Peptide mixture Kit (AB Sciex, Framingham, MA, USA) containing bradykinin (2–9), angiotensin I, glu1-fibrinopeptide, ACTH (1–17), ACTH (18–39) and ACTH (7–38) was diluted with matrix and spotted on the plate as well.
MS and MS/MS data for peptide fragment identification were obtained with a MALDI-TOF/TOF instrument (4800 MALDI TOF/TOF™, Applied Biosystems, Waltham, MA, USA) and instrument parameters were set using 4000 Series Explorer™ software. MS spectra were recorded in positive reflector mode in a mass range from 500 to 4000 Da and laser intensity of 4500–4800 Hz. The spectra were calibrated using the calibration mixture mentioned above to a mass tolerance of 0.1 Da. MS/MS spectra were recorded with high-energy collision-induced dissociation and the laser intensity was increased by 10%. Precursor mass m/z 1570.65 (Glu1-Fibrinopeptide from the calibration mixture) was used to calibrate the MS/MS spectra to a mass tolerance of 0.1 Da.
MS and MS/MS spectra were processed using DataExplorer™ software and the obtained output files were uploaded in the MS-PEP data analyzer (https://bioit.shinyapps.io/PARs/ accessed 10/08/2020) for peptide fragment identification. Identified fragments were confirmed using the MS/MS spectra and mMass 5.5.0 by Martin Strohalm. The relative intensities of the fragments were calculated as the ratio of the intensity of the peak of interest to the intensity of the peak of the standard peptide.

Series [1] is described as follows: Cleavage of peptides by colonic tissue lysates from TNBS-induced colitis rat model, MALDI-TOF/TOF. As to conditions: 10 µM peptide, 20 µg/mL protein, 37 °C; for Processing by colonic samples, in words (comparison of control, post-colitis and acute colitis): rat colonic lysates, up to 30 min, n = 8 per group. The protocol:
Adult male Sprague–Dawley rats (200–225 g; Charles River, Wilmington, MA, USA) were used in a previously described TNBS-induced acute and post-inflammatory model. Rats were housed at constant room temperature (22 ± 2 °C) and humidity (60%) with two rats per cage, unlimited access to water and food and on a 12 h–12 h light/dark cycle.
After an overnight fast, TNBS colitis was induced using a TNBS-enema (4 mg TNBS; Sigma-Aldrich, 50% ethanol) as described previously. Rats were anesthetized with a mixture of ketamine (35 mg/kg i.p.; Ketalar®, Pfizer, New York City, NY, USA) and xylazine (5 mg/kg i.p.; Rompun®, Bayer, Leverkusen, Germany), and the TNBS-enema or 0.9% saline was administered intrarectally using a flexible catheter (18 G, length 4.5 cm) to colitis and control rats, respectively. Animals were kept in a tail-up position for 1 min and were then allowed to recover in their cages with free access to water and food. […] For the post-colitis group (n = 8), a colonoscopy was performed starting from day 10 and repeated every 4 days until complete mucosal healing was observed. The rats were then sacrificed as well and colonic samples were taken.
Colonic lysates were prepared for studying their effects on cleavage patterns of added peptides with a MALDI-TOF/TOF assay. After sacrifice, a sample of approximately 50 mg of distal colon was taken from each rat. The colonic samples were immediately rinsed with Krebs solution, snap-frozen and stored at −80 °C until further processing. Sample preparation started with crushing the colonic samples on dry ice. Liquid nitrogen was used to prevent the loss of enzymatic activity due to temperature increases and the colon powders were stored at −80 °C for further experiments. […] After centrifugation, the supernatants were collected and used immediately to prepare the reaction mixtures, measure proteolytic activities with fluorogenic substrates and determine the protein content with a Bradford assay.
Colonic lysate was added to a peptide of interest to obtain the reaction mixtures with the colonic samples. Lysate and peptide were diluted so each mixture contained 10 µM peptide of interest and 20 µg/mL protein originating from the colonic tissue. These peptide and protein concentrations were based on research from Loew et al. and O’ Donoghue et al.. The mixtures were incubated at 37 °C for several incubation periods between 5 and 30 min. Afterward, the fragmentation reaction was stopped by adding trifluoroacetic acid (TFA; Alfa Aesar™, ThermoFisher, Waltham, MA, USA) to a final concentration of 2% and standard peptide (substance P, bradykinin or PAR3-based peptide) was added in a final concentration of 10 µM. Standard peptides were selected based on the mass of the peptides of interest. For each sample/peptide combination, a starting point was included as well. Here, TFA was added immediately after mixing the reaction constituents. Samples were stored at −80 °C for further MALDI-TOF/TOF experiments.
as §1
MS and MS/MS data for peptide fragment identification were obtained with a MALDI-TOF/TOF instrument (4800 MALDI TOF/TOF™, Applied Biosystems, Waltham, MA, USA) and instrument parameters were set using 4000 Series Explorer™ software. MS spectra were recorded in positive reflector mode in a mass range from 500 to 4000 Da and laser intensity of 4500–4800 Hz.

Results on 4 compounds are retold here after publication PMC8509398, “Proteolytic Cleavage of Bioactive Peptides and Protease-Activated Receptors in Acute and Post-Colitis” (International Journal of Molecular Sciences, 2021).

The structures appear in SMILES notation. Residues, ends and D or L forms follow the SMILES beside them.

tryptase, sequence (Q15661 31-275): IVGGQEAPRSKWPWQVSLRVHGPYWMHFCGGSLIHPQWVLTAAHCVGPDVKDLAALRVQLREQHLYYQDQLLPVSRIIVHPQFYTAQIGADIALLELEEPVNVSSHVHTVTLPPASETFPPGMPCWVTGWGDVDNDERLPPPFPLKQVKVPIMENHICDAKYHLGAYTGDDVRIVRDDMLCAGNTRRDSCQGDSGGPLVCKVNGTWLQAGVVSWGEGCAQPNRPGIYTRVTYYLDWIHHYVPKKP

Take `CC[C@H](C)[C@H](NC(=O)[C@H](CC(C)C)NC(=O)[C@H](CO)NC(=O)[C@H](CCCNC(=N)N)NC(=O)CNC(=O)[C@H](CCCCN)NC(=O)[C@H](CO)NC(=O)[C@H](CO)NC(=O)[C@H](CCCNC(=N)N)NC(=O)[C@H](CC(N)=O)NC(=O)[C@@H](NC(=O)CNC(=O)[C@H](CCC(N)=O)NC(=O)[C@@H](NC(=O)[C@@H](N)[C@@H](C)O)[C@@H](C)CC)[C@@H](C)O)C(=O)NCC(=O)N[C@@H](CCCCN)C(=O)N[C@H](C(=O)N[C@@H](CC(=O)O)C(=O)NCC(=O)N[C@H](C(=O)N[C@@H](CO)C(=O)N[C@@H](Cc1c[nH]cn1)C(=O)N[C@H](C(N)=O)C(C)C)[C@@H](C)O)C(C)C` [PAR2-based] (H-TIQGTNRSSKGRSLIGKVDGTSHV-NH2): on tryptase, the “Incubation time at which the first cleavage or decrease of the full-length peptide was observed, tryptase” value stood at 2 min; the “TL disarming (D), Tryptase” value is recorded as “−”; the “TL unmasking (U), Tryptase” value is reported as “+++ (ultrafast processing within 2 min)”. The “Number of colonic samples in which the TL-sequence unmasking cleavage was observed, acute colitis” value in series [1] (acute colitis lysates, n = 8, MALDI-TOF/TOF, PAR1-based after 30 min) is “four out of eight”. Besides, the “Number of colonic samples in which the TL-sequence unmasking cleavage was observed, control” value in series [1] (control lysates, n = 8, MALDI-TOF/TOF, PAR1-based after 30 min) is on record as “two out of eight”. In addition, the “Number of colonic samples in which the TL-sequence unmasking cleavage was observed, post-colitis” value in series [1] (post-colitis lysates, n = 8, MALDI-TOF/TOF, PAR1-based after 30 min) is recorded as “three out of eight”. Further, the “Processing by colonic samples, in words (comparison of control, post-colitis and acute colitis)” value (from here on “Processing by colonic samples, in words”) in series [1] (MALDI-TOF/TOF) is recorded as “no differences”.

In the case of `CC[C@H](C)[C@H](NC(=O)[C@H](C)NC(=O)[C@H](CC(N)=O)NC(=O)[C@H](CCCCN)NC(=O)[C@H](Cc1ccccc1)NC(=O)[C@H](CC(C)C)NC(=O)[C@@H](NC(=O)[C@@H](NC(=O)[C@H](CC(C)C)NC(=O)[C@@H]1CCCN1C(=O)[C@@H](NC(=O)[C@H](CCC(N)=O)NC(=O)[C@H](CO)NC(=O)[C@H](CCCCN)NC(=O)[C@H](CCC(=O)O)NC(=O)[C@H](CO)NC(=O)[C@@H](NC(=O)[C@H](CCSC)NC(=O)[C@H](Cc1ccccc1)NC(=O)CNC(=O)CNC(=O)[C@@H](N)Cc1ccc(O)cc1)[C@@H](C)O)[C@@H](C)O)C(C)C)[C@@H](C)O)C(=O)N[C@H](C(=O)N[C@@H](CCCCN)C(=O)N[C@@H](CC(N)=O)C(=O)N[C@@H](C)C(=O)N[C@@H](Cc1ccc(O)cc1)C(=O)N[C@@H](CCCCN)C(=O)N[C@@H](CCCCN)C(=O)NCC(=O)N[C@@H](CCC(=O)O)C(=O)O)[C@@H](C)CC` [β-endorphin], at tryptase, the “Efficiency of the first cleavage in the peptide, Tryptase” value was “+++ (ultrafast processing within 2 min)” and the “Incubation time at which the first cleavage or decrease of the full-length peptide was observed, tryptase” value was found to be 2 min. For the same compound, in series [1] (MALDI-TOF/TOF), the “Processing by colonic samples, in words” value is recorded as “cleaved more intensively by proteases in acute colitis samples”.

With `CC[C@H](C)[C@H](NC(=O)[C@@H]1CCCN1C(=O)[C@H](CC(C)C)NC(=O)[C@@H](NC(=O)[C@@H]1CCCN1C(=O)[C@H](CCCCN)NC(=O)[C@H](C)NC(=O)[C@H](CC(C)C)NC(=O)[C@H](CC(N)=O)NC(=O)[C@H](CC(N)=O)NC(=O)[C@@H](NC(=O)[C@H](CC(=O)O)NC(=O)[C@H](CC(N)=O)NC(=O)[C@H](CCC(=O)O)NC(=O)[C@H](CCSC)NC(=O)CN)[C@@H](C)O)[C@@H](C)O)C(=O)N[C@@H](CCCCN)C(=O)N[C@H](C(=O)N[C@@H](Cc1ccccc1)C(=O)N[C@@H](CCCNC(=N)N)C(=O)NCC(=O)N[C@@H](C)C(=O)N1CCC[C@H]1C(=O)N1CCC[C@H]1C(=O)N[C@@H](CC(N)=O)C(=O)N[C@@H](CO)C(=O)N[C@@H](Cc1ccccc1)C(=O)N[C@@H](CCC(=O)O)C(N)=O)[C@@H](C)O` [PAR3-based] (H-GMENDTNNLAKPTLPIKTFRGAPPNSFE-NH2), on tryptase, the “TL disarming (D), Tryptase” value is given as “+++ (ultrafast processing within 2 min)” and the “TL unmasking (U), Tryptase” value was “−”. Moreover, the “Incubation time after which processing was significant (decrease of full-length peptide or increase of fragment), acute colitis samples” value in series [1] (rat colonic lysate, acute TNBS colitis, 5-30 min, stopped with 2% TFA, MALDI-TOF/TOF relative intensity vs standard peptide, n = 8 animals) is 30 min. Further, the “Incubation time after which processing was significant (decrease of full-length peptide or increase of fragment), control samples” value in series [1] (rat colonic lysate, control, 5-30 min, stopped with 2% TFA, MALDI-TOF/TOF relative intensity vs standard peptide, n = 8 animals) is reported as “No C- or N-terminal fragments could be detected”. For the same compound, the “Incubation time after which processing was significant (decrease of full-length peptide or increase of fragment), post-colitis samples” value in series [1] (rat colonic lysate, post-colitis, 5-30 min, stopped with 2% TFA, MALDI-TOF/TOF relative intensity vs standard peptide, n = 8 animals) was “trend towards an increase of the C-terminal fragment”. Further, the “Processing by colonic samples, in words” value in series [1] (MALDI-TOF/TOF) is reported as “cleaved slowly”.

With `CC[C@H](C)[C@H](NC(=O)[C@H](CO)NC(=O)[C@H](CC(N)=O)NC(=O)[C@H](CC(C)C)NC(=O)[C@H](Cc1ccc(O)cc1)NC(=O)[C@H](CCCCN)NC(=O)[C@H](CCCCN)NC(=O)[C@@H](NC(=O)[C@H](C)NC(=O)[C@H](CCSC)NC(=O)[C@H](CCC(N)=O)NC(=O)[C@H](CCCCN)NC(=O)[C@H](CCCN=C(N)N)NC(=O)[C@H](CC(C)C)NC(=O)[C@H](CCCN=C(N)N)NC(=O)[C@@H](NC(=O)[C@H](Cc1ccc(O)cc1)NC(=O)[C@H](CC(N)=O)NC(=O)[C@H](CC(=O)O)NC(=O)[C@@H](NC(=O)[C@H](Cc1ccccc1)NC(=O)[C@@H](NC(=O)[C@H](C)NC(=O)[C@H](CC(=O)O)NC(=O)[C@H](CO)NC(=O)[C@@H](N)Cc1c[nH]cn1)C(C)C)[C@@H](C)O)[C@@H](C)O)C(C)C)C(=O)N[C@@H](CC(C)C)C(=O)N[C@@H](CC(N)=O)C(N)=O` [VIP, Vasoactive intestinal peptide], on tryptase, the “Efficiency of the first cleavage in the peptide, Tryptase” value is “+++ (ultrafast processing within 2 min)” and the “Incubation time at which the first cleavage or decrease of the full-length peptide was observed, tryptase” value is reported as 2 min. The “Processing by colonic samples, in words” value in series [1] (MALDI-TOF/TOF) was “no differences”.
